Measurements from US20260166128A1, “HUMAN AMYLIN ANALOG, AND DERIVATIVE THEREOF AND USE THEREOF” (priority 2022, published 2026).
Numbered stars: 1 amine (or outer) side, 2 acyl side, 3 side chain; on linkers, the order of the positions; unused ones are H or OH. Bridge positions count the residues as written; N and C are the ends. Square brackets hold non-standard residues; d marks the D form. Side chains are listed from the residue outwards. Peptide text beside a SMILES is read from it. * marks the point of attachment. C20 diacid = O=C(O)CCCCCCCCCCCCCCCCCCC(=O)*; γGlu = O=C(O)[C@H](CCC(=O)[*:2])N[*:1]; Hyp = O=C(O)[C@@H]1C[C@@H](O)CN1; Dab = NCC[C@H](N)C(=O)O; AEEA = NCCOCCOCC(=O)O

Columns and labels:
human amylin receptor = biological target: T1, human amylin receptor (Homo sapiens, UniProt O60896+P30988); experiment: Luciferase assay of amylin derivatives in amylin receptor/CRE-luc CHO cell line; type: cell-based; details: CHO-K1/Ga15/AMY3 CRE-luc cells, 24 hours incubation, F12 medium containing 10% FBS; read-out: EC50
T1 construct: host or cells: CHO-K1/Ga15/AMY3 cells, further stably transfected with a CRE-luciferase plasmid
T1 sequence (P30988 25-474): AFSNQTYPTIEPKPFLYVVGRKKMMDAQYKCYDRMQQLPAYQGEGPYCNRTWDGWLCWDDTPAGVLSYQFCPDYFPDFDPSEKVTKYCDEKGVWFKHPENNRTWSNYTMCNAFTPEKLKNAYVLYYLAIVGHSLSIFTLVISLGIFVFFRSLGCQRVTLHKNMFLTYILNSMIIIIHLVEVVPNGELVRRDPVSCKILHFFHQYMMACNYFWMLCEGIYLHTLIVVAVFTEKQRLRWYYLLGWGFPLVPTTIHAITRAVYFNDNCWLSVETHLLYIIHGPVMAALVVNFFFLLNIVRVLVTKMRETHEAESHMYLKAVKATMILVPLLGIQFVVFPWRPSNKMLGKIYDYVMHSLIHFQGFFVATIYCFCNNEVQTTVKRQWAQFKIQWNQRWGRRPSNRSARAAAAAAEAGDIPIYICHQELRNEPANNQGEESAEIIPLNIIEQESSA
T1 sequence (O60896 24-148 partner): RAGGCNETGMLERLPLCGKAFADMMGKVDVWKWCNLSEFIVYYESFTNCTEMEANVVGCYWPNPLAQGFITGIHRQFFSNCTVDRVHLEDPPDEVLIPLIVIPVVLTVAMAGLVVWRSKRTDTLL
Procedure: The experiment was intended to detect the activity or efficacy of the amylin derivatives on a human amylin receptor in vitro by luciferase assay.
50 μL of growth medium (F12 medium containing 10% FBS) was added into each well of a white 96-well plate, and the stably transfected amylin/CRE-lue CHO cells were inoculated into the white 96-well plate at a density of about 20,000 cells/well for activity determination.

[1] = Freeze-thaw stability of derivatives (freeze-thaw yield by liquid chromatography); type: physicochemical; details: for Dissolution property: appearance after dissolution at 0.2 mg/ml in 20 mM phosphate buffer solution (PB) (pH 7.0); for Freeze storage property: appearance after overnight storage at −20° C. and thawing to room temperature, 0.2 mg/ml in 20 mM PB (pH 7.0)
Procedure: The freeze-dried powder of the polypeptide analog derivative prepared in Example 1 was mixed with a buffer solution according to a mass-volume ratio of 0.2 mg/ml, the polypeptide was dissolved with 20 mM phosphate buffer solution (PB) (pH 7.0), the sample was stored at −20° C. for overnight storage, and then the sample was taken out to be restored to room temperature for thawing. During the experiment, property changes of the polypeptide after dissolution and freezing and thawing were observed and recorded respectively, and concentrations of the polypeptide before and after the freezing and thawing were detected by the following liquid chromatography method: Materials and equipment: high-performance liquid chromatographic instrument (Agilent 1200), ultrapure water (18.2 MΩ self-manufactured ultrapure water), acetonitrile (HPLC grade), and trifluoroacetic acid (HPLC grade); and reversed-phase chromatographic column: […] A sample to be tested was centrifuged at 10,000 rpm and 4° C. for 3 minutes, and a supernatant was taken and added into a liquid-phase sample injection bottle. […] A freeze-thaw yield was calculated by the following formula: freeze-thaw yield=concentration of polypeptide after the freezing and thawing/concentration of polypeptide before the freezing and thawing.

SMILES	EC50 (human amylin receptor)	Dissolution property [1]	Freeze storage property [1]
CC[C@H](C)[C@H](NC(=O)[C@@H]1CCCN1C(=O)CNC(=O)[C@H](CCCCNC(=O)CC[C@H](NC(=O)CCCCCCCCCCCCCCCCCCC(=O)O)C(=O)O)NC(=O)[C@H](CC(N)=O)NC(=O)[C@H](CC(N)=O)NC(=O)[C@H](CO)NC(=O)[C@H](CO)NC(=O)[C@H](Cc1c[nH]cn1)NC(=O)[C@H](CCCNC(=N)N)NC(=O)[C@H](CC(C)C)NC(=O)[C@H](Cc1ccccc1)NC(=O)[C@H](CCC(=O)O)NC(=O)[C@H](C)NC(=O)[C@H](CC(C)C)NC(=O)[C@H](CCCNC(=N)N)NC(=O)[C@H](CCC(N)=O)NC(=O)[C@@H](NC(=O)[C@H](C)NC(=O)[C@@H]1CSSC[C@H](NC(=O)[C@@H](N)CCCNC(=N)N)C(=O)N[C@@H](CC(N)=O)C(=O)N[C@@H]([C@@H](C)O)C(=O)N[C@@H](C)C(=O)N[C@@H]([C@@H](C)O)C(=O)N1)[C@@H](C)O)C(=O)N[C@@H](CC(C)C)C(=O)N1CCC[C@H]1C(=O)N1CCC[C@H]1C(=O)N[C@H](C(=O)N[C@@H](CC(N)=O)C(=O)N[C@H](C(=O)NCC(=O)N[C@@H](CO)C(=O)N[C@@H](CC(N)=O)C(=O)N[C@H](C(=O)N1CCC[C@H]1C(N)=O)[C@@H](C)O)C(C)C)[C@@H](C)O [PD008] (H-RCNTATCATQRLAEFLRHSSNNK([γGlu-C20 diacid])GPILPPTNVGSNTP-NH2; disulfide 2-7 (inferred))	0.281 nM	Clear	Clear
CC[C@H](C)[C@H](NC(=O)[C@@H]1CCCN1C(=O)[C@@H]1CCCN1C(=O)[C@H](CC(C)C)NC(=O)[C@H](CC(N)=O)NC(=O)[C@H](CC(N)=O)NC(=O)[C@H](CO)NC(=O)[C@H](CO)NC(=O)[C@H](Cc1c[nH]cn1)NC(=O)[C@H](CCCNC(=N)N)NC(=O)[C@H](CC(C)C)NC(=O)[C@H](Cc1ccccc1)NC(=O)[C@H](CC(=O)O)NC(=O)[C@H](C)NC(=O)[C@H](CC(C)C)NC(=O)[C@H](CCCNC(=N)N)NC(=O)[C@H](CCC(N)=O)NC(=O)[C@@H](NC(=O)[C@H](C)NC(=O)[C@@H]1CSSC[C@H](NC(=O)[C@H](CCCCN)NC(=O)CC[C@H](NC(=O)CCCCCCCCCCCCCCCCCCC(=O)O)C(=O)O)C(=O)N[C@@H](CC(N)=O)C(=O)N[C@@H]([C@@H](C)O)C(=O)N[C@@H](C)C(=O)N[C@@H]([C@@H](C)O)C(=O)N1)[C@@H](C)O)C(=O)N[C@@H](CC(C)C)C(=O)N1CCC[C@H]1C(=O)N1CCC[C@H]1C(=O)N[C@H](C(=O)N[C@@H](CC(N)=O)C(=O)N[C@H](C(=O)NCC(=O)N[C@@H](CO)C(=O)N[C@@H](CC(N)=O)C(=O)N[C@H](C(=O)N1CCC[C@H]1C(N)=O)[C@@H](C)O)C(C)C)[C@@H](C)O [PD163] ({C20 diacid-γGlu}-KCNTATCATQRLADFLRHSSNNLPPILPPTNVGSNTP-NH2; disulfide 2-7 (inferred))	0.084 nM	–	–
CC[C@H](C)[C@H](NC(=O)[C@@H]1CCCN1C(=O)[C@H](CCCCNC(=O)CC[C@H](NC(=O)CCCCCCCCCCCCCCCCCCC(=O)O)C(=O)O)NC(=O)[C@H](CC(C)C)NC(=O)[C@H](CC(N)=O)NC(=O)[C@H](CC(N)=O)NC(=O)[C@H](CO)NC(=O)[C@H](CO)NC(=O)[C@H](Cc1c[nH]cn1)NC(=O)[C@H](CCCNC(=N)N)NC(=O)[C@H](CC(C)C)NC(=O)[C@H](Cc1ccccc1)NC(=O)[C@H](CC(=O)O)NC(=O)[C@H](C)NC(=O)[C@H](CC(C)C)NC(=O)[C@H](CCCNC(=N)N)NC(=O)[C@H](CCC(N)=O)NC(=O)[C@@H](NC(=O)[C@H](C)NC(=O)[C@@H]1CSSC[C@H](NC(=O)[C@@H](N)CCN)C(=O)N[C@@H](CC(N)=O)C(=O)N[C@@H]([C@@H](C)O)C(=O)N[C@@H](C)C(=O)N[C@@H]([C@@H](C)O)C(=O)N1)[C@@H](C)O)C(=O)N[C@@H](CC(C)C)C(=O)N1CCC[C@H]1C(=O)N1CCC[C@H]1C(=O)N[C@H](C(=O)N[C@@H](CC(N)=O)C(=O)N[C@H](C(=O)NCC(=O)N[C@@H](CO)C(=O)N[C@@H](CC(N)=O)C(=O)N[C@H](C(=O)N1C[C@H](O)C[C@H]1C(N)=O)[C@@H](C)O)C(C)C)[C@@H](C)O [PD074] (H-[Dab]CNTATCATQRLADFLRHSSNNLK([γGlu-C20 diacid])PILPPTNVGSNT[Hyp]-NH2; disulfide 2-7)	0.066 nM	–	–

These reach a lower EC50 (human amylin receptor). Values come first.

EC50 (human amylin receptor)	Dissolution property [1]	Freeze storage property [1]	SMILES
0.049 nM	–	–	CC[C@H](C)[C@H](NC(=O)[C@@H]1CCCN1C(=O)[C@H](CCCCNC(=O)CC[C@H](NC(=O)CCCCCCCCCCCCCCCCCCC(=O)O)C(=O)O)NC(=O)[C@H](CC(C)C)NC(=O)[C@H](CC(N)=O)NC(=O)[C@H](CC(N)=O)NC(=O)[C@H](CO)NC(=O)[C@H](CO)NC(=O)[C@H](Cc1c[nH]cn1)NC(=O)[C@H](CCCNC(=N)N)NC(=O)[C@H](CC(C)C)NC(=O)[C@H](Cc1ccccc1)NC(=O)[C@H](CC(=O)O)NC(=O)[C@H](C)NC(=O)[C@H](CC(C)C)NC(=O)[C@H](CCCNC(=N)N)NC(=O)[C@H](CCC(N)=O)NC(=O)[C@@H](NC(=O)[C@H](C)NC(=O)[C@@H]1CSSC[C@H](N)C(=O)N[C@@H](CC(N)=O)C(=O)N[C@@H]([C@@H](C)O)C(=O)N[C@@H](C)C(=O)N[C@@H]([C@@H](C)O)C(=O)N1)[C@@H](C)O)C(=O)N[C@@H](CC(C)C)C(=O)N1CCC[C@H]1C(=O)N1CCC[C@H]1C(=O)N[C@H](C(=O)N[C@@H](CC(N)=O)C(=O)N[C@H](C(=O)NCC(=O)N[C@@H](CO)C(=O)N[C@@H](CC(N)=O)C(=O)N[C@H](C(=O)N1C[C@H](O)C[C@H]1C(N)=O)[C@@H](C)O)C(C)C)[C@@H](C)O [PD054] (H-CNTATCATQRLADFLRHSSNNLK([γGlu-C20 diacid])PILPPTNVGSNT[Hyp]-NH2; disulfide 1-6)
0.042 nM	Clear	Clear	CC[C@H](C)[C@H](NC(=O)[C@@H]1CCCN1C(=O)CNC(=O)[C@H](CC(C)C)NC(=O)[C@H](CC(N)=O)NC(=O)[C@H](CCCCNC(=O)COCCOCCNC(=O)COCCOCCNC(=O)CC[C@H](NC(=O)CCCCCCCCCCCCCCCCCCC(=O)O)C(=O)O)NC(=O)[C@H](CO)NC(=O)[C@H](CO)NC(=O)[C@H](Cc1c[nH]cn1)NC(=O)[C@H](CCCNC(=N)N)NC(=O)[C@H](CC(C)C)NC(=O)[C@H](Cc1ccccc1)NC(=O)[C@H](CCC(=O)O)NC(=O)[C@H](C)NC(=O)[C@H](CC(C)C)NC(=O)[C@H](CCCNC(=N)N)NC(=O)[C@H](CCC(N)=O)NC(=O)[C@@H](NC(=O)[C@H](C)NC(=O)[C@@H]1CSSC[C@H](NC(=O)[C@@H](N)CCCNC(=N)N)C(=O)N[C@@H](CC(N)=O)C(=O)N[C@@H]([C@@H](C)O)C(=O)N[C@@H](C)C(=O)N[C@@H]([C@@H](C)O)C(=O)N1)[C@@H](C)O)C(=O)N[C@@H](CC(C)C)C(=O)N1CCC[C@H]1C(=O)N1CCC[C@H]1C(=O)N[C@H](C(=O)N[C@@H](CC(N)=O)C(=O)N[C@H](C(=O)NCC(=O)N[C@@H](CO)C(=O)N[C@@H](CC(N)=O)C(=O)N[C@H](C(=O)N1CCC[C@H]1C(N)=O)[C@@H](C)O)C(C)C)[C@@H](C)O [PD001] (H-RCNTATCATQRLAEFLRHSSK([AEEA-AEEA-γGlu-C20 diacid])NLGPILPPTNVGSNTP-NH2; disulfide 2-7 (inferred); N-terminus assumed)
0.031 nM	–	–	CC[C@H](C)[C@H](NC(=O)[C@@H]1CCCN1C(=O)[C@H](CCCCNC(=O)COCCOCCNC(=O)COCCOCCNC(=O)CC[C@H](NC(=O)CCCCCCCCCCCCCCCCCCC(=O)O)C(=O)O)NC(=O)[C@H](CC(C)C)NC(=O)[C@H](CC(N)=O)NC(=O)[C@H](CC(N)=O)NC(=O)[C@H](CO)NC(=O)[C@H](CO)NC(=O)[C@H](Cc1c[nH]cn1)NC(=O)[C@H](CCCNC(=N)N)NC(=O)[C@H](CC(C)C)NC(=O)[C@H](Cc1ccccc1)NC(=O)[C@H](CC(=O)O)NC(=O)[C@H](C)NC(=O)[C@H](CC(C)C)NC(=O)[C@H](CCCNC(=N)N)NC(=O)[C@H](CCC(N)=O)NC(=O)[C@@H](NC(=O)[C@H](C)NC(=O)[C@@H]1CSSC[C@H](NC(=O)[C@@H](N)CCCNC(=N)N)C(=O)N[C@@H](CC(N)=O)C(=O)N[C@@H]([C@@H](C)O)C(=O)N[C@@H](C)C(=O)N[C@@H]([C@@H](C)O)C(=O)N1)[C@@H](C)O)C(=O)N[C@@H](CC(C)C)C(=O)N1CCC[C@H]1C(=O)N1CCC[C@H]1C(=O)N[C@H](C(=O)N[C@@H](CC(N)=O)C(=O)N[C@H](C(=O)NCC(=O)N[C@@H](CO)C(=O)N[C@@H](CC(N)=O)C(=O)N[C@H](C(=O)N1C[C@H](O)C[C@H]1C(N)=O)[C@@H](C)O)C(C)C)[C@@H](C)O [PD081] (H-RCNTATCATQRLADFLRHSSNNLK([AEEA-AEEA-γGlu-C20 diacid])PILPPTNVGSNT[Hyp]-NH2; disulfide 2-7)
